Experimental data published in the NIST ThermoML archive (doi:10.1016/j.jct.2010.04.026).
“And” between values parts separate entries of the source, which are not always exact repeats. Equal values may be shown once.

Settings: Crystal; for mass density: 295.1 K, 101.33 kPa, pellet size and mass; for vapor or sublimation pressure: Calculated from knudsen effusion weight loss

Nc1ccc2[nH]ncc2c1 [5-aminoindazole]
Settings | mass density [kg/m3] | vapor or sublimation pressure
– | 1400 | –
358.12 K | – | 8.43e-05 kPa and 8.3e-05 kPa
360.18 K | – | 0.000101 kPa and 0.0001064 kPa and 0.000103 kPa
362.16 K | – | 0.0001305 kPa and 0.0001265 kPa and 0.0001259 kPa
364.11 K | – | 0.0001563 kPa and 0.0001589 kPa and 0.0001556 kPa
366.17 K | – | 0.0001991 kPa and 0.0001966 kPa and 0.0001879 kPa
368.17 K | – | 0.0002397 kPa and 0.0002332 kPa and 0.0002247 kPa
370.13 K | – | 0.0002948 kPa and 0.0002986 kPa
372.18 K | – | 0.0003483 kPa and 0.0003696 kPa and 0.0003499 kPa
374.15 K | – | 0.0004435 kPa and 0.0004334 kPa and 0.0004198 kPa
376.13 K | – | 0.0005419 kPa and 0.000534 kPa and 0.0005297 kPa
378.17 K | – | 0.0006618 kPa and 0.000668 kPa and 0.0006232 kPa
380.16 K | – | 0.0007639 kPa and 0.0007696 kPa and 0.0007519 kPa

Nc1ccc2cn[nH]c2c1 [6-aminoindazole]
Settings | mass density [kg/m3] | vapor or sublimation pressure
– | 1450 | –
366.14 K | – | 0.0001031 kPa and 0.0001023 kPa and 0.0001025 kPa
368.17 K | – | 0.0001275 kPa and 0.0001257 kPa and 0.0001221 kPa
370.18 K | – | 0.0001528 kPa and 0.0001513 kPa and 0.0001468 kPa
372.14 K | – | 0.0001919 kPa and 0.0001878 kPa and 0.0001923 kPa
374.16 K | – | 0.0002356 kPa and 0.000234 kPa and 0.0002228 kPa
376.17 K | – | 0.0002875 kPa and 0.0002739 kPa
378.15 K | – | 0.0003523 kPa and 0.0003592 kPa and 0.0003463 kPa
380.16 K | – | 0.0004332 kPa and 0.000428 kPa and 0.0004138 kPa
382.17 K | – | 0.0005244 kPa and 0.0005044 kPa and 0.0005114 kPa
384.15 K | – | 0.0006281 kPa and 0.0006132 kPa and 0.0006304 kPa
386.16 K | – | 0.0007813 kPa and 0.0007708 kPa and 0.0007396 kPa
388.17 K | – | 0.0009109 kPa and 0.0008984 kPa and 0.0008878 kPa
